inhibition, IC50 and CC50 data for 20 compounds are collected here from ChEMBL document CHEMBL5346931, “Design, synthesis, and repurposing of O6-aminoalkyl-sulfuretin analogs towards discovery of potential lead compounds as antileishmanial agents” (Eur J Med Chem, 2023).

The subject of data set [1] is Leishmania donovani. Kind of data set: Antileishmanial activity against Leishmania donovani promastigotes assessed as parasitic growth inhibition at 50 uM incubated for 3 days by resazurin dye based assay relative to control. Type of data set: functional. As to conditions: 72 h, time 3 day. A general note: Alamar Blue is a resazurin reagent that responds to reducing activity.

Data set [2] deals with Leishmania donovani. Kind of data set: Antileishmanial activity against Leishmania donovani promastigotes assessed as parasitic growth inhibition at 25 uM incubated for 3 days by resazurin dye based assay relative to control. The conditions noted are these: 72 h, time 3 day. It is filed as functional.
In data set [3] the test system is Leishmania donovani. Kind of data set: Antileishmanial activity against Leishmania donovani promastigotes assessed as parasitic growth inhibition incubated for 3 days by resazurin dye based assay. Type of data set: functional, organism-based. As to conditions: 72 h.
The test system of data set [4] is Leishmania donovani. Kind of data set: Antileishmanial activity against Leishmania donovani amastigotes infected in human THP-1 cells assessed as inhibition of intracellular parasite number incubated for 72 hrs by DAPI staining based assay. It is filed as functional, organism-based. As to conditions: THP-1, 72 h.
The subject of data set [5] is Leishmania donovani. Kind of data set: Antileishmanial activity against Leishmania donovani amastigotes infected in human THP-1 cells assessed as inhibition of parasite infection incubated for 72 hrs by DAPI staining based assay. It is filed as functional, organism-based. The conditions noted are these: THP-1, 72 h.
A short description of data set [6]: Cytotoxicity against human THP-1 cells. It is filed as toxicity, cell-based.

Bounds are passed on as bounds.

The inhibition is the change of the read-out against control, counted positive when it falls. Usually IC50 stands for the concentration that gives 50% inhibition. For the compound `COc1ccc2c(c1)O/C(=C\c1ccc(O)c(O)c1)C2=O`, the inhibition at 50 µM in the data set with Leishmania donovani [1] was 108%. Also, the inhibition at 25 µM with Leishmania donovani [2] came to 105%. Moreover, in the data set on Leishmania donovani [3], the IC50 came to 26.4 µM.
Usually CC50 stands for the concentration giving 50% cytotoxicity. A lower CC50 goes with harm at low concentration. Regarding `COc1ccc(/C=C2\Oc3cc(OCCN4CCCCC4)ccc3C2=O)cc1`, the inhibition at 50 µM in the data set with Leishmania donovani [1] is 99%. Further, the inhibition at 25 µM in the data set with Leishmania donovani [2] stood at 104%. Besides, the IC50 in the data set on Leishmania donovani [3] was 4.3 µM; in the data set on Leishmania donovani [4], 31.5 µM; in the data set on Leishmania donovani [5], 34.8 µM. Moreover, in data set [6], the midpoint of cytotoxicity, the CC50, lay at 40.7 µM.
Take `COc1ccc(/C=C2\Oc3cc(OCCN4CCCCC4)ccc3C2=O)cc1OC`: the inhibition at 50 µM in the data set with Leishmania donovani [1] was found to be 127%. Further, the inhibition at 25 µM in the data set on Leishmania donovani [2] was determined as 122%. The IC50 worked out at 2.5 µM with Leishmania donovani [3], 25.5 µM in the data set on Leishmania donovani [4] and 29.7 µM in the data set with Leishmania donovani [5]. In data set [6], this compound had a CC50 of 27.4 µM.
In the case of `COc1ccccc1/C=C1\Oc2cc(OCCN3CCCC3)ccc2C1=O`, the inhibition at 50 µM in the data set with Leishmania donovani [1] was 71%. The inhibition at 25 µM in the data set on Leishmania donovani [2] came out at 69%. Further, the IC50 with Leishmania donovani [3] was above 100 µM.
For `COc1cccc(/C=C2\Oc3cc(OCCN4CCCC4)ccc3C2=O)c1`, the inhibition at 50 µM in the data set on Leishmania donovani [1] turned out to be 117%. In the data set with Leishmania donovani [2], the inhibition at 25 µM came out at 112%. Moreover, the half-maximal inhibitory concentration (IC50) stood at 4.8 µM in the data set with Leishmania donovani [3], 22.9 µM in the data set with Leishmania donovani [4] and 26.7 µM in the data set with Leishmania donovani [5]. In data set [6], the half-maximal cytotoxic concentration (CC50) worked out at 28.9 µM.
In the case of `COc1ccc(/C=C2\Oc3cc(OCCN4CCCC4)ccc3C2=O)cc1`, in the data set with Leishmania donovani [1], the inhibition at 50 µM was 115%. Besides, the inhibition at 25 µM with Leishmania donovani [2] came out at 108%. The IC50 in the data set with Leishmania donovani [3] came to 4.8 µM; in the data set with Leishmania donovani [4] it was 15.8 µM; with Leishmania donovani [5], 22.6 µM. For the same compound, in data set [6], the 50% cytotoxic concentration (CC50) worked out at 21.5 µM.
As for `COc1ccc(OC)c(/C=C2\Oc3cc(OCCN4CCCC4)ccc3C2=O)c1`, the inhibition at 50 µM with Leishmania donovani [1] came out at 116%. In addition, the inhibition at 25 µM with Leishmania donovani [2] was determined as 115%. Also, the figures for the IC50 in the data set with Leishmania donovani [3], in the data set on Leishmania donovani [4] and in the data set on Leishmania donovani [5] were 4.1 µM, 4.6 µM and 11.1 µM, respectively. The same compound showed a CC50 in data set [6] of 10.5 µM.
With `COc1cc(/C=C2\Oc3cc(OCCN4CCCC4)ccc3C2=O)cc(OC)c1OC`, the inhibition at 50 µM in the data set on Leishmania donovani [1] was 133%. Also, in the data set with Leishmania donovani [2], the inhibition at 25 µM stood at 126%. The concentration for half-maximal inhibition (IC50) with Leishmania donovani [3] came to 3.1 µM; with Leishmania donovani [4] it was 15.7 µM; in the data set with Leishmania donovani [5], 27.3 µM. The CC50 in data set [6] amounted to 26.2 µM.
Consider `COc1ccccc1/C=C1\Oc2cc(OCCCN3CCCC3)ccc2C1=O`, for which, in the data set on Leishmania donovani [1], the inhibition at 50 µM came to 110%. Further, the inhibition at 25 µM in the data set with Leishmania donovani [2] is 107%. In addition, the IC50 with Leishmania donovani [3] was determined as 4.1 µM; with Leishmania donovani [4] it was 8.2 µM; in the data set on Leishmania donovani [5] it was 21.2 µM. Half-maximal cytotoxicity in data set [6] (CC50) was put at 14.3 µM.
Consider `COc1cccc(/C=C2\Oc3cc(OCCCN4CCCC4)ccc3C2=O)c1OC`, for which, in the data set on Leishmania donovani [1], the inhibition at 50 µM was 116%. Moreover, in the data set on Leishmania donovani [2], the inhibition at 25 µM stood at 109%. In addition, the IC50 in the data set on Leishmania donovani [3] was 5.4 µM; in the data set with Leishmania donovani [4], above 100 µM; in the data set with Leishmania donovani [5], 26.4 µM. The compound further showed a 50% cytotoxic concentration (CC50) in data set [6] of 33.5 µM.
As for `COc1ccc(OC)c(/C=C2\Oc3cc(OCCCN4CCCC4)ccc3C2=O)c1`, in the data set on Leishmania donovani [1], the inhibition at 50 µM was determined as 103%. In addition, the inhibition at 25 µM in the data set with Leishmania donovani [2] came to 103%. Further, the IC50 amounted to 3.7 µM with Leishmania donovani [3], 4.4 µM in the data set on Leishmania donovani [4] and 6.3 µM in the data set on Leishmania donovani [5]. In data set [6], this compound came in with a CC50 of 6.6 µM.
Turning to `COc1ccc(/C=C2\Oc3cc(OCCCN4CCCC4)ccc3C2=O)cc1OC`, in the data set on Leishmania donovani [1], the inhibition at 50 µM was determined as 124%. Besides, the inhibition at 25 µM in the data set with Leishmania donovani [2] turned out to be 120%. Further, the IC50 in the data set with Leishmania donovani [3] came out at 3.1 µM; in the data set with Leishmania donovani [4], 16.9 µM; with Leishmania donovani [5] it was 26.2 µM. Further, it took 26.9 µM to reach half-maximal cytotoxicity in data set [6] (CC50).
For the compound `COc1cc(/C=C2\Oc3cc(OCCCN4CCCC4)ccc3C2=O)cc(OC)c1`, in the data set on Leishmania donovani [1], the inhibition at 50 µM came out at 102%. In the data set with Leishmania donovani [2], the inhibition at 25 µM was 104%. Further, the IC50 in the data set with Leishmania donovani [3] amounted to 2.8 µM; with Leishmania donovani [4] it was 14.3 µM; in the data set on Leishmania donovani [5], 14 µM. In data set [6], this compound displayed a 50% cytotoxic concentration (CC50) of 15.3 µM.
As to `COc1ccc(/C=C2\Oc3cc(OCCCCCN4CCCCC4)ccc3C2=O)cc1OC`, in the data set with Leishmania donovani [1], the inhibition at 50 µM is 124%. Moreover, the inhibition at 25 µM in the data set on Leishmania donovani [2] was found to be 115%. Further, the figures for the IC50 in the data set on Leishmania donovani [3], in the data set on Leishmania donovani [4] and in the data set with Leishmania donovani [5] were 2.9 µM, 17.1 µM and 24.1 µM, respectively. Further, the CC50 in data set [6] came out at 26.1 µM.
For the compound `COc1ccc(/C=C2\Oc3cc(OCCCN4CCCCC4)ccc3C2=O)cc1OC`, the inhibition at 50 µM in the data set with Leishmania donovani [1] stood at 125%. Further, the inhibition at 25 µM in the data set with Leishmania donovani [2] came out at 119%. Besides, the figures for the IC50 in the data set on Leishmania donovani [3], in the data set on Leishmania donovani [4] and in the data set on Leishmania donovani [5] were 2.6 µM, 22.3 µM and 29.5 µM, respectively. In addition, in data set [6], the CC50 came out at 28.4 µM.
Turning to `CCN(CC)CCCOc1ccc2c(c1)O/C(=C\c1cccc(OC)c1)C2=O`, the inhibition at 50 µM in the data set with Leishmania donovani [1] was 118%. For the same compound, in the data set on Leishmania donovani [2], the inhibition at 25 µM was 114%. The IC50 in the data set on Leishmania donovani [3] turned out to be 4.6 µM; in the data set with Leishmania donovani [4], 14.5 µM; in the data set on Leishmania donovani [5], 17.1 µM. Besides, in data set [6], half-maximal cytotoxicity (CC50) was put at 19.3 µM.
For `CCN(CC)CCOc1ccc2c(c1)O/C(=C\c1cccc(OC)c1)C2=O`, the inhibition at 50 µM in the data set with Leishmania donovani [1] turned out to be 121%. Moreover, the inhibition at 25 µM in the data set on Leishmania donovani [2] worked out at 115%. Moreover, the IC50 in the data set with Leishmania donovani [3] was 8.6 µM; in the data set with Leishmania donovani [4] it was above 100 µM; in the data set with Leishmania donovani [5] it was 27.4 µM. It took 39 µM to reach half-maximal cytotoxicity in data set [6] (CC50).
In the case of `CCN(CC)CCOc1ccc2c(c1)O/C(=C\c1ccccc1OC)C2=O`, in the data set on Leishmania donovani [1], the inhibition at 50 µM was determined as 115%. The inhibition at 25 µM in the data set with Leishmania donovani [2] is 110%. The results for the IC50 in the data set on Leishmania donovani [3], in the data set on Leishmania donovani [4] and in the data set with Leishmania donovani [5] were 5.3 µM, 9.9 µM and 13.3 µM, respectively. Besides, the midpoint of cytotoxicity in data set [6], the CC50, lay at 17.2 µM.
Turning to `COc1cccc(/C=C2\Oc3cc(OCCN4CCOCC4)ccc3C2=O)c1`, the inhibition at 50 µM with Leishmania donovani [1] worked out at 105%. For the same compound, in the data set on Leishmania donovani [2], the inhibition at 25 µM was 80%. Besides, the IC50 with Leishmania donovani [3] came to 27 µM.
Consider `CCCCCCCCCCCCCCCCCCOCC(COP(=O)([O-])OCC[N+](C)(C)C)OC` (stereo unspecified) [EDELFOSINE], for which, in the data set with Leishmania donovani [1], the inhibition at 50 µM was found to be 108%. Moreover, the inhibition at 25 µM in the data set with Leishmania donovani [2] turned out to be 108%. The concentration for half-maximal inhibition (IC50) was found to be 3.9 µM in the data set with Leishmania donovani [3], 2 µM in the data set on Leishmania donovani [4] and 7.7 µM in the data set with Leishmania donovani [5]. Further, it took 12.9 µM to reach half-maximal cytotoxicity in data set [6] (CC50).
